Experimental data taken from article PMC3928151 (ACS chemical biology, 2013).

Target: CaCrg1 (Candida albicans, UniProt A0A1D8PSY8)
Experiment: […] methyl transfer, acid-labile volatility
Type: biochemical
Conditions: 0.2 mM cantharidin, 20 µM S-adenosyl-[methyl-14C]-L-methionine, 0.1 M sodium phosphate pH 7.4, 30 °C, 120 min

`C[C@@]12C(=O)OC(=O)[C@]1(C)[C@H]1CC[C@@H]2O1` [cantharidin] was tested, and the “14C methyl transfer, acid-labile volatility (14C-methanol)” value was “demonstrating that CaCrg1 is a functional MTase methylating cantharidin in vitro”.
